In patent US8147801B2, “Methods of using alpha-methylglucoside (AMG) as an indicator for glucose absorption and excretion” (Janssen Pharmaceutica, N.V., priority 2009, dated 2012):

Legend:
[1] = biological target: T1, SGLT2 (Homo sapiens, UniProt P31639); conditions: literature value (Kanai et al. 1994; US 2008/0234367); cited from earlier work
T1 sequence (P31639 1-672): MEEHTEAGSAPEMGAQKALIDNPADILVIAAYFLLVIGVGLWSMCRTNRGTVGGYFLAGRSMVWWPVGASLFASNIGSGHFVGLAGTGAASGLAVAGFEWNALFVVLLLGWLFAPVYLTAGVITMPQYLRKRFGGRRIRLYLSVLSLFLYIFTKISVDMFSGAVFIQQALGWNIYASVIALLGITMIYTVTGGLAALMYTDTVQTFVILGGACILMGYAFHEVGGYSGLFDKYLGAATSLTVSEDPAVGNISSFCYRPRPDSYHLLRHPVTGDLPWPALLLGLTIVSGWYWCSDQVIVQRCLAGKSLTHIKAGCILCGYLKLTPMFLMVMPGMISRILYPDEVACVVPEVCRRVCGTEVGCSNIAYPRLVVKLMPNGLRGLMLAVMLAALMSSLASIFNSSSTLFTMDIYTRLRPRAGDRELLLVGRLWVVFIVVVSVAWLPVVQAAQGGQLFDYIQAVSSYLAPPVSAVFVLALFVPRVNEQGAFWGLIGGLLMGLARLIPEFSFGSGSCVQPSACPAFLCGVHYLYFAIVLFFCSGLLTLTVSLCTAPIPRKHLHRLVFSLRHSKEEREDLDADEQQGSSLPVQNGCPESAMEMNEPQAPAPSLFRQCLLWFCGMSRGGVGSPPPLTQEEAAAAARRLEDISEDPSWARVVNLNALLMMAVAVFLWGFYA

[2] = biological target: T2, SGLT1 (Homo sapiens, UniProt P13866); conditions: literature value (Kanai et al. 1994; US 2008/0234367); cited from earlier work
T2 sequence (P13866 1-664): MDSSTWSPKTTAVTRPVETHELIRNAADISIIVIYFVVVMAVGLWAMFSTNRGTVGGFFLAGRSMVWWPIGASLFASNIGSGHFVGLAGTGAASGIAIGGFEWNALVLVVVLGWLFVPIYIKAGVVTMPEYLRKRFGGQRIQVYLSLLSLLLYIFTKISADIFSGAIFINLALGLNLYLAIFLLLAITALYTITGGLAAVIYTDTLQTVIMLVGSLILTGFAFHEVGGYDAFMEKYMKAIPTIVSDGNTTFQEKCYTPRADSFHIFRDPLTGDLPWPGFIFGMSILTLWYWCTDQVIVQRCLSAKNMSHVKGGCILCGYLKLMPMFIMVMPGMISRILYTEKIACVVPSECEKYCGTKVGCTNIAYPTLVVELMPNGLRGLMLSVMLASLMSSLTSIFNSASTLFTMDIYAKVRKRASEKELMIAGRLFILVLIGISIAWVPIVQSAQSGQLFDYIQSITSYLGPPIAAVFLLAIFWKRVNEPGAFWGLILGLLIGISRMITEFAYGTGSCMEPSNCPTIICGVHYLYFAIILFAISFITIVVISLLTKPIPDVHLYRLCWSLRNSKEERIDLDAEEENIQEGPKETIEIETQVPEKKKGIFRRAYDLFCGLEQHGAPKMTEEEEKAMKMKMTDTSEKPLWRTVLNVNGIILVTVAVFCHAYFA

[3] = tested on: Male Sprague-Dawley (SD) rats; experiment: Oral AMG test in rats: AMG measured by NMR in GI tract, plasma and urine after SGLT inhibitor dosing; assay type: in vivo, rat; conditions: for AMG content retained in the GI system / amount of AMG detected in plasma / amount of AMG detected in the urine: rats, compound 0.3 or 3.0 mg/kg oral, AMG 2 g/kg oral 1 h later; for AMG content retained in the GI system: FIG. 1A; for amount of AMG detected in plasma: FIG. 1B; for amount of AMG detected in the urine: FIG. 1C
Description: Male Sprague-Dawley (SD) rats were dosed by oral gavage with either vehicle, 0.5% methylcellulose (methocel) in sterile water, or one of the SGLT inhibitors (Compound 1 and Compound 2) at 0.3 or 3.0 mg/kg. Compounds were administered as a suspension in 0.5% methylcellulose and sterile water. One hour after dosing the animals with the compounds, AMG was administrated orally via gavage (2 g/kg). AMG was dissolved in sterile water. Rats were sacrificed 120 or 240 minutes after AMG administration. Urine and plasma samples were collected and the entire gastrointestinal tract was removed and placed into saline. Subsequently, a GI lysate was made. Aliquots were taken from the samples of plasma, urine and the GI lysate and were extracted with acetonitrile to precipitate protein. […] The aqueous portion was dried down and re-suspended in deuterated water to a volume of 0.5 ml.
Proton NMR spectra were acquired on a Bruker DMX 600 MHz NMR spectrometer (Bruker Biospin Corporation, Billerica, Mass.) with the probe temperature maintained at 32° C. The mildly elevated temperature was used to enhance the chemical shift separation between the solvent peak (the residual water in the sample) and the anomeric proton of AMG (a doublet at 4.80 ppm) which was used for quantification. The solvent peak was saturated using very low power irradiation (a field strength of about 4 Hz) during the pre-pulse delay followed by a 30° pulse to acquire the signal. The pre-pulse delay was 3.0 s and the acquisition time was 2.1 s. The sweep width was 13 ppm using 32 k complex points. Before fourier transformation the data was apodized with 0.5 Hz exponential linebroadening. The amount of AMG present in the sample was determined relative to an internal reference, DSS (2,2-dimethyl-2-silapentane-d6-sulfonic acid, sodim salt) at 0.00 ppm.

[4] = biological target: T2, SGLT1; experiment: Cell-based 14C-AMG uptake inhibition assay, CHOK1 cells expressing human SGLT1; design: expressed in transfected cells; conditions: CHOK1 cells stably expressing human SGLT1, 0.5 mM 14C-AMG, 30 min uptake; read-out: hSGLT1 (IC50, nM) [A]
Description: (§1) Inhibition of SGLT activity with Compound 1 and Compound 2 was assessed in CHOK1 cells stably expressing either human SGLT1 or human SGLT2. Compound 1 and Compound 2, are described in U.S. Patent Application Nos. 2005/0233988 and 2008/0027122, the contents of which are incorporated by reference in their entirety.
CHOK1 cells expressing human SGLT2 or human SGLT1 were seeded in 24-well plates at a density of approximately 400,000 cells/well in F-12 nutrient mixture (Ham's F-12) containing 10% fetal bovine serum, 400 ug/ml Geneticin, 50 units/ml sodium penicillin G (Gibco-BRL) and 50 ug/ml streptomycin sulfate. Cells were maintained in culture for 2 days at 37° C. in a humidified atmosphere containing 5% CO2. On the day of the assay, Compound 1 and Compound 2 were dissolved in DMSO and then diluted in assay buffer. The final concentration of DMSO was 0.5%. Assay buffer contained 137 mM NaCl, 5 mM KCl, 1 mM CaCl2, 1 mM MgCl2, 50 mM Hepes, and 20 mM Tris, pH 7.4. To start the assay, cells were washed once with the assay buffer and then incubated with 250 ul of the assay buffer containing Compound 1 or Compound 2 for 10 min at 37° C. […] Cells were then solubilized with 0.3 N NaOH and aliquots were taken for determination of radioactivity by a liquid scintillation counter. […] Specific uptake was normalized for the protein concentrations measured by the method of Bradford. […]

[5] = biological target: T1, SGLT2; experiment: Cell-based 14C-AMG uptake inhibition assay, CHOK1 cells expressing human SGLT2; design: expressed in transfected cells; conditions: for IC50: CHOK1 cells stably expressing human SGLT2, 0.5 mM 14C-AMG, 30 min uptake, read-out: hSGLT2 (IC50, nM) [B]; for [A]/[B] (fold): ratio hSGLT1 IC50 / hSGLT2 IC50
Description: as §1
CHOK1 cells expressing human SGLT2 or human SGLT1 were seeded in 24-well plates at a density of approximately 400,000 cells/well in F-12 nutrient mixture (Ham's F-12) containing 10% fetal bovine serum, 400 ug/ml Geneticin, 50 units/ml sodium penicillin G (Gibco-BRL) and 50 ug/ml streptomycin sulfate. Cells were maintained in culture for 2 days at 37° C. in a humidified atmosphere containing 5% CO2. On the day of the assay, Compound 1 and Compound 2 were dissolved in DMSO and then diluted in assay buffer. The final concentration of DMSO was 0.5%. Assay buffer contained 137 mM NaCl, 5 mM KCl, 1 mM CaCl2, 1 mM MgCl2, 50 mM Hepes, and 20 mM Tris, pH 7.4. To start the assay, cells were washed once with the assay buffer and then incubated with 250 ul of the assay buffer containing Compound 1 or Compound 2 for 10 min at 37° C. The transport reaction was initiated by addition of 50 ul ^14C-AMG solution (final concentration, 0.5 mM ^14C-AMG). After incubation for 30 minutes at 37° C., the uptake was stopped by aspiration of the incubation mixture and the cells were washed three times with ice-cold PBS. Cells were then solubilized with 0.3 N NaOH and aliquots were taken for determination of radioactivity by a liquid scintillation counter. Nonspecific AMG uptake was defined as that which occurred in the presence of 100 uM of phlorizin, a specific inhibitor of sodium-dependent glucose cotransporter. Specific uptake was normalized for the protein concentrations measured by the method of Bradford. The 50% inhibitory concentration (IC50) values were calculated from dose-response curves by least square method.

[6] = tested on: facilitated glucose transporters (GLUTs); conditions: cited from earlier work
[7] = tested on: rodent models of diabetes and one canine diabetes model; conditions: cited from earlier work
[8] = rodent models of diabetes and one canine diabetes model

Row | SMILES | IC50 [4] | AMG content retained in the GI system [3] | amount of AMG detected in plasma [3] | amount of AMG detected in the urine [3] | IC50 [5] | [A]/[B] (fold) [5] | other results
1 | CO[C@H]1O[C@H](CO)[C@@H](O)[C@H](O)[C@H]1O [AMG, Methyl-alpha-D-glucopyranoside] | – | – | – | – | – | – | Km [1]: 1600 µM; Km [2]: 400 µM; absorption of oral AMG in vehicle treated rats ([3]; AMG 2 g/kg oral gavage, vehicle treated rats, GI system, plasma and urine samples): absorbed from the GI system
2 | CCc1ccc(Cc2cn([C@@H]3O[C@H](CO)[C@@H](O)[C@H](O)[C@H]3O)c3ccccc23)cc1 [Compound 1] | 1700 nM | did not cause a significant retention | dose-dependent decreases | increase in the amount of AMG detected in the urine | 8.4 nM | 202 fold | –
3 | OC[C@@H]1O[C@H](n2cc(Cc3ccc(C4CC4)cc3)c3c(F)cccc32)[C@@H](O)[C@H](O)[C@H]1O [Compound 2] | 270 nM | markedly increased at the higher dose | dose-dependent decreases | increased amount of AMG detected in the urine | 1.9 nM | 142 fold | –
4 | O=C(CCc1ccc(O)cc1)c1c(O)cc(O)cc1O [phloretin] | – | – | – | – | – | – | inhibition of facilitated glucose transporters (GLUTs) [6]: potent inhibitor
5 | O=C(CCc1ccc(O)cc1)c1c(O)cc(O)cc1O[C@@H]1O[C@H](CO)[C@@H](O)[C@H](O)[C@H]1O [phlorizin] | – | – | – | – | – | – | fasting and fed plasma glucose levels [7, 8]: lowered fasting and fed plasma glucose levels; glucose excretion [7, 8]: promoted glucose excretion; adverse effects on plasma ion balance, renal function or renal morphology ([7]; treatment for as long as two weeks): No adverse effects
